Columns and labels:
[1] = tested on: C57BL/6 mice; experiment: Mouse open field experiment; format: in vivo; conditions: for Central area dwell time (s) Mean ± SEM / Central area traveling distance percentage (%) Mean ± SEM / Total moving distance (cm) Mean ± SEM: 30 mg/kg i.p., 1 hour before, 30-minute test
Description: Experiment objectives: to observe the anti-anxiety effect of the test compound on the mice by open field experiment.
Experimental animals: male C57BL/6 mice, 10 weeks old, purchased from Beijing Huafukang Biotechnology Co., Ltd.
Animal rearing: The temperature in the animal room was maintained at 20-25° C., the humidity was maintained at 40-70%, and the photoperiod was 12 hours light and 12 hours dark. During feeding, the mice were housed in standard mouse cages, with colored labels on each cage clearly indicating the item number, and the basic information such as the responsible person, group, animal number and animal gender. All animals were given free access to pure water and standard certified rodent feed. Before the start of the experiment, the experimental animals were adapted to the feeding environment for at least one week.
The compound to be tested, intraperitoneally administered, 30 mg/kg.
Experimental principle: Based on the instincts of rodents tending to avoid light and fear of exploring open fields. When the experimental animals were first placed in the open field, the central area was a potential threat to the animals, while the peripheral area was relatively safe, and rats and mice were more likely to move along the perimeter of the field. Therefore, if the animal is of high anxiety level, it tends to stay in the peripheral area. Conversely, the number and time of exploration in the central area will increase.
Experimental grouping and administration: Experimental animals were randomly divided into 5 groups as follows:
During the 30-minute test period, the total distance traveled by the experimental animals, the central area dwell time, and the percentage of the central area travel distance will be detected and recorded.

[2] = biological target: mGluR2 (Homo sapiens (Human), UniProt Q14416); experiment: In vitro activity test for mGluR2 (HDB Fluo-8 calcium fluorescence, HEK/mGluR2 cell line); format: cell-based
Sequence of mGluR2 (Q14416 19-872): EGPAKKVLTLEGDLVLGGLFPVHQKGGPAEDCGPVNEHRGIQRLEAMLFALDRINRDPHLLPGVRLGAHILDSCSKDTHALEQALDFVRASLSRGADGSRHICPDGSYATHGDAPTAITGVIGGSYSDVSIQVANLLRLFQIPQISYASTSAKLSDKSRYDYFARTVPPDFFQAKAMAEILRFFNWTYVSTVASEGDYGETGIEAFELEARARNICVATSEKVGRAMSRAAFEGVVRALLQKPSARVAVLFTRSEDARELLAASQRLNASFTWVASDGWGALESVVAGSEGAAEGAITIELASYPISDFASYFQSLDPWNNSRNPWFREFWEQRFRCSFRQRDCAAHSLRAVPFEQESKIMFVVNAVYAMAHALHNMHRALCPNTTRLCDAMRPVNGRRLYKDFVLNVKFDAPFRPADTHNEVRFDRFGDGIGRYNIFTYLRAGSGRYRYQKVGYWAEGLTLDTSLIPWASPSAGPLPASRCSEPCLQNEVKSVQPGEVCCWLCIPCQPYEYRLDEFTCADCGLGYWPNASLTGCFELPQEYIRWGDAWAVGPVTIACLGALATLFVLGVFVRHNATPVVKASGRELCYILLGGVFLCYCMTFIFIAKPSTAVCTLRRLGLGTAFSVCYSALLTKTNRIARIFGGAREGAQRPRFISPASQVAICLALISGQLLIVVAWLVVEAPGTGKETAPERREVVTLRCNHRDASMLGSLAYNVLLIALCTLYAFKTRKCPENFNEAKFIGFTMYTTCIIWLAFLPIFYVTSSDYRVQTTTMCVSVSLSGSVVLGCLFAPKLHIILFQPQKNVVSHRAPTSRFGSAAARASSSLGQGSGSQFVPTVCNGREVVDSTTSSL
From the text: Experimental materials: HEK/mGluR2 cell line (human […] transfected HEK cell line), DMEM (FBS) medium, positive control LY487379 (purchased from sigma; CAS: to 352317-17-1)
Experimental instrument: FLIPR Tetra real-time fluorescence imaging analysis system
Experimental method: HDB Fluo-8 calcium fluorescence detection method
Experimental principle: HDB Fluo-8 calcium ion fluorescence detection method is a fast, simple and reliable fluorescence detection method of intracellular calcium concentration changes. The Fluo 8-AM fluorescent dye is an acetyl methyl ester derivative of Fluo 8 which can easily penetrate into the cell membrane by culture. The fluorescent dye in the cell will be hydrolyzed by intracellular esterase, the resulting Fluo 8 as a polar molecule, cannot easily pass through the lipid bimolecular membrane, and will be retained in the cell, and combine with calcium (Ca^2+) to produce fluoresces.
Cells expressing GPCR receptor protein (mGluR2) were first calibrated with a calcium ion sensitive fluorescent probe and then stimulated with the compound. After stimulation, the receptor activates the calcium ion mobilization, and the fluorescent probe captures the calcium ion to induce the fluorescence signal. The signal can be read by a fluoroscopy plate. The fluorescent plate reader contains a sample addition for compound addition, thus enabling the change of the fluorescence value of the compound be read in real time.

[3] = tested on: ICR mice; experiment: Mouse swimming depression test; format: in vivo; conditions: for non-movement time (%) Mean ± SEM: orally, 1 hour before test
Description: Experiment objectives: to observe the effect of the test compound on the depressive status of mice
Experimental animals: ICR mice, 20-28 g, both male and female
Experimental equipment: plexiglass tube: cylindrical, 25 cm high, 15 cm inner diameter
Sample treatment: The test compounds were ground with 1% CMC (sodium carboxymethyl cellulose) to prepare a homogeneous solution. In vivo dose was 5 mg/kg, 10 mg/kg and 20 mg/kg, the compound was orally administrated at 0.1 ml/10 g volume/body weight. Positive control drugs (amitriptyline and fluoxetine) were dissolved with 0.9% saline, in vivo dose was 10 mg/kg, intraperitoneal injected at 0.1 ml/10 g volume/body weight. (Note: mice were given the compound after fasted for 8 hours without water-fasted.)
Experimental principle: The mouse is placed in a limited space which can not escape to swim, thus inducing animals to non-movement state which reflects the animal's desperate behavior.
Experimental Methods: mice were grouped randomly, 15 minutes swimming depression was modeled at the first day, and equivalent mice were selected. The second day of the test, 1 hour after the animals were orally administered the compound (0.5 hours after intraperitoneal injection) and then the animals were put in water to record the non-movement time in the later 4 min of 6 min.

SMILES | Central area dwell time (s) Mean ± SEM [1] | Central area traveling distance percentage (%) Mean ± SEM [1] | Total moving distance (cm) Mean ± SEM [1] | central region's range of motion ([1]; dosage of 30 mg/kg) | EC50 [2] | non-movement time (%) Mean ± SEM ([3]; 5 mg/kg) | non-movement time (%) Mean ± SEM ([3]; 10 mg/kg) | non-movement time (%) Mean ± SEM ([3]; 20 mg/kg) | "no movement time" of swimming in mice (in words) ([3]; mouse, in vivo) | antidepressant effect ([3]; mouse, in vivo)
COC(=O)c1ccc(-c2ccn3c(CC4CC4(F)F)nnc3c2Cl)c(F)c1 (centres unmarked) [Compound 45, Methyl 4-(8-Chloro-3-((2,2-difluorocyclopropyl)methyl)-[1,2,4]triazole[4,3-a]pyridin-7-yl)-3-fluorobenzoate] | 110 ± 13.0 s | 19.39 ± 1.63 % | 5043.2 ± 457.5 cm | significantly increase | 87.9 nM | 63.99 ± 11.00% | 34.88 ± 6.57% | 56.29 ± 17.56% | effectively shorten | significant antidepressant effect
FC1(F)CC1Cc1nnc2c(Cl)c(-c3ccc4c(c3)OCO4)ccn12 (centres unmarked) [Compound 50, 7-(Benzo[d][1,3]dioxol-5-yl)-8-chloro-3-((2,2-difluorocyclopropyl)methyl)-[1,2,4]triazole [4,3-a]pyridine] | 81.1 ± 10.2 s | 13.91 ± 0.96% | 4407.2 ± 390.5 cm |  | 62.3 nM | 84.06 ± 10.65% | 52.10 ± 15.86% | 57.08 ± 17.80% |  | 

From patent US10800776B2, “Fluorine-containing triazolopyridine, and manufacturing method, pharmaceutical composition, and application thereof” (SHANGHAI INSTITUTE OF MATERIA MEDICA, CHINESE ACADEMY OF …, priority 2016, dated 2020)
